Measured values taken from US6979740B2, “Process for preparation of ring-substituted 8-aminoquinoline analogs as antimalarial agents” (National Institute of Pharmaceutical Education and Research, priority 2003, dated 2005).
Values after ≈ are worked out from the molar mass of the structure shown. “Also recorded” adds a separate entry of the source.

How the values were obtained:
[1] = system: Plasmodium berghei (sensitive strain); assay: Blood schizontocidal activity against Plasmodium berghei infection in mice; assay type: in vivo; conditions: P. berghei infected mice, oral, 4 doses D0 to D+3, suppressive = parasitaemia suppressed on D+4 and D+7, curative = cleared up to 28 days
Method: (§1) Blood schizontocidal activity evaluation of potential antimalarial compounds against Plasmodium berghei (sensitive strain) and P. yoelii nigeriensis (resistant strain) infection in mice.
(§2) Test Procedure: On day ‘0’, groups of 6 mice each were inoculated, intraperitoneally, with 1×10^7 infected-erythrocytes, from a donor mouse. Four hours later, mice were administered test compounds/chloroquine primaquine/vehicle, orally. A total of 4 doses were given on days D‘0’, D+1, D+2, and D+3. The tail blood smears were made on day D+4 and D+7, stained with Geimsa, and examined microscopically. […] The results of blood-schizontocidal activities for the synthesized compounds are given below in Table 1.

[2] = system: P. yoelii nigeriensis (multidrug resistant strain); assay: Blood schizontocidal activity against chloroquine and mefloquine drug-resistant P. yoelii nigeriensis in mice; assay type: in vivo; conditions: oral, 4 doses, listed as R=H, R1=H, R2=C(CH3)3, R3=H
Method: as §1, §2

Swiss mice = assay: Acute toxicity studies in Swiss mice; assay type: in vivo
Method: A group of ten mice with equal ratio of male and female were subjected to a single dose of 5, 50, 150 and 450 mg/kg.

Mastomys coucha = assay: In vivo methemoglobin (MetHb) toxicity in Mastomys coucha; conditions: for (%) Methemoglobin (MetHb) Increase: Mastomys coucha, blood 4 h after administration
Method: The protocol used is as follows: In vivo MetHb-inducing properties estimation was carried out in Mastomys coucha, a rapid rodent animal model using protocols reported earlier (Srivastava, P., Singh, S., Jain, G. K., Puri, S. K., Pandey, V. C. Ecotox. Environ. Safety. 2000, 45, 236-239). Briefly; six animals per group of both sexes, 2-3 months old and body weight between 40-50 g were used for the present investigation. Drug was administered intraperitoneally (ip) or orally at various dosage for single day/three consecutive days. Primaquine is used as the standard drug for the test. It is known that primaquine is readily absorbed from the gastro-intestinal tract and peak plasma concentration reaches within 3 h and falls within an apparent elimination half time of 6 h. Keeping the above pharmacokinetic profile in mind, the blood samples were collected after 4 h of drug administration and % increase in MetHb was calculated.

P. falciparum = assay: In vitro antimalarial activity against P. falciparum; assay type: cell-based
Method: Protocol: Different drug dilutions [test compounds and chloroquine (positive control)] were prepared in complete RPMI (medium RPMI 1640+10% AB^+ human serum; CRPMI). Fifty μL of each dilution was transferred to the respective well of a microtiter plate in triplicates. Parasitized erythrocytes (PE; mainly rings; 4% parasitaemia; 5% hematokrit) were added to each well. Volume in each well was made up to 200 μL with CRPMI. The plates were incubated at 37° C. in a candle jar. After 24-48 h of incubation, thin smears from each well were made and stained with Giemsa. The number of PE/10,000 cells was counted. […] Using non-linear regression analysis, the IC50 of the test compounds was then calculated.

[3] = cited from earlier work

## COc1cc(NC(C)CCCN)c2nc(C(C)(C)C)ccc2c1 (stereo not shown) [Example 43, N^8-(4-Amino-1-methylbutyl)-2-tert-butyl-6-methoxy-8-quinolinamine]
[1]; listed as 1
  Biological activity at (mg/kg/days × 4): curative at a dose of 10 mg/kg
[1]; listed as R=H, R1=H, R2=C(CH3)3, R3=H
  Biological activity at (mg/kg/days × 4): Curative at 10 mg/kg
[2]
  Biological activity at (mg/kg/days × 4): Curative at 100 mg/kg; also recorded: Curative at 50 mg/kg; also recorded: Curative at 25 mg/kg; also recorded: Suppressive at 10 mg/kg
Swiss mice; single dose
  acute toxicity (result in words): completely safe at 50 mg/kg
Swiss mice; single dose 5 mg/kg
  % Mortality Female: 0%
  % Mortality Male: 0%
  % Mortality Total: 0%
Swiss mice; single dose 50 mg/kg
  % Mortality Female: 0%
  % Mortality Male: 0%
  % Mortality Total: 0%
Swiss mice; single dose 150 mg/kg
  % Mortality Female: 0%
  % Mortality Male: 0%
  % Mortality Total: 0%
Swiss mice; single dose 450 mg/kg
  % Mortality Female: 0%
  % Mortality Male: 0%
  % Mortality Total: 0%
Mastomys coucha; 15 mg/kg/day x 4 days (ip)
  (%) Methemoglobin (MetHb) Increase: 0%
Mastomys coucha; 15 mg/kg/day x 4 days (oral)
  (%) Methemoglobin (MetHb) Increase: 0%
Mastomys coucha; 50 mg/kg (single dose) (ip)
  (%) Methemoglobin (MetHb) Increase: 0%
Mastomys coucha; 50 mg/kg (single dose) (oral)
  (%) Methemoglobin (MetHb) Increase: 0%
Mastomys coucha; in vivo
  methemoglobin (MetHb) toxicity (result in words): completely devoid of this toxic manifestation in vivo
P. falciparum; Plasmodium falciparum, Erythrocyte, read-out: P. falciparum (IC50)
  IC50: 0.0391 µg/mL (≈ 0.124 µM)

## COc1cc(NC(C)CCCN)c2ncccc2c1C1CCCC1 (stereo not shown) [Example 44, N^8-(4-Amino-1-methylbutyl)-5-cyclopentyl-6-methoxy-8-quinolinamine]
[1]
  Biological activity at (mg/kg/days × 4): Inactive at 100 mg/kg

## COc1cc(NC(C)CCCN)c2nc(C34CC5CC(CC(C5)C3)C4)ccc2c1 (stereo not shown) [Example 45, N^8-[4-Amino-1-methylbutyl)-2-adamantyl-6-methoxy-8-quinolinamine]
[1]
  Biological activity at (mg/kg/days × 4): Inactive at 100 mg/kg

## COc1cc(NC(C)CCCN)c2ncccc2c1C(C)C (stereo not shown) [Example 46, N^8-(4-Amino-1-methylbutyl)-5-isopropyl-6-methoxy-8-quinolinamine]
[1]
  Biological activity at (mg/kg/days × 4): Inactive at 100 mg/kg

## COc1cc(NC(C)CCCN)c2ncccc2c1C1CCCCC1 (stereo not shown) [Example 47, N^8-(4-Amino-1-methylbutyl)-5-cyclohexyl-6-methoxy-8-quinolinamine]
[1]
  Biological activity at (mg/kg/days × 4): Inactive at 100 mg/kg

## COc1cc(NC(C)CCCN)c2nc(C3CCCC3)ccc2c1C1CCCC1 (stereo not shown) [Example 48, N^8-(4-Amino-1-methylbutyl)-2,5-dicyclopentyl-6-methoxy-8-quinolinamine]
[1]
  Biological activity at (mg/kg/days × 4): Inactive at 100 mg/kg

## COc1cc(NC(C)CCCN)c2nc(C(C)C)ccc2c1C(C)C (stereo not shown) [Example 49, N^8-(4-Amino-1-methylbutyl)-2,5-diisopropyl-6-methoxy-8-quinolinamine]
[1]
  Biological activity at (mg/kg/days × 4): Inactive at 100 mg/kg

## COc1cc(NC(C)CCCN)c2nc(C3CCCCC3)ccc2c1C1CCCCC1 (stereo not shown) [Example 50, N^8-(4-Amino-1-methylbutyl)-2,5-dicyclohexyl-6-methoxy-8-quinolinamine]
[1]
  Biological activity at (mg/kg/days × 4): Inactive at 100 mg/kg

## COc1cc(NC(C)CCCN)c2nc(C(C)(C)C)ccc2c1OC (stereo not shown) [Example 51, N^8-(4-Amino-1-methylbutyl)-2-tert-butyl-5,6-dimethoxy-8-quinolinamine]
[1]
  Biological activity at (mg/kg/days × 4): Inactive at 100 mg/kg

## CCCCCOc1c(OC)cc(NC(C)CCCN)c2nc(C(C)(C)C)cc(CC)c12 (stereo not shown) [Example 54, N^8-(4-Amino-1-methylbutyl)-2-tert-butyl-4-ethyl-6-methoxy-5-pentoxy-8-quinolin-amine]
[1]
  Biological activity at (mg/kg/days × 4): Curative at 100 mg/kg

## CCCCCCCCOc1c(OC)cc(NC(C)CCCN)c2nc(C(C)(C)C)cc(CC)c12 (stereo not shown) [Example 55, N^8-(4-Amino-1-methylbutyl)-2-tert-butyl-4-ethyl-6-methoxy-5-octoxy-8-quinolin-amine]
[1]
  Biological activity at (mg/kg/days × 4): Curative at 100 mg/kg

## COc1cc(NCCC(C)CN)c2nc(C(C)(C)C)cc(C)c2c1OC (stereo not shown) [Example 56, N^8-(4-Amino-3-methylbutyl)-2-tert-butyl-5,6-methoxy-4-methyl-8-quinolinamine]
[1]
  Biological activity at (mg/kg/days × 4): Curative at 100 mg/kg

## COc1cc(NC(C)CCCNC(=O)[C@@H](N)CCCN)c2nc(C(C)(C)C)ccc2c1 (stereo partly drawn) [Example 61, N^1-[4-(2-tert-Butyl-6-methoxy-8-quinolylamino)pentyl]-(2S)-2,5-diaminopentamide]
[1]
  Biological activity at (mg/kg/days × 4): Curative at 100 mg/kg

## COc1cc(NC(C)CCCNC(=O)[C@@H](N)CCCCN)c2nc(C(C)(C)C)ccc2c1 (stereo partly drawn) [Example 63, N^1-[4-(2-tert-Butyl-6-methoxy-8-quinolylamino)pentyl]-(2S)-2-6-diaminohexanamide]
[1]; listed as 17
  Biological activity at (mg/kg/days × 4): suppressive activity at 10 mg/kg
[1]; listed as R=H, R1=H, R2=C(CH3)3, R3=S-(Lys)
  Biological activity at (mg/kg/days × 4): Suppressive at 10 mg/kg

## COc1cc(NC(C)CCCNC(=O)[C@H](C)N)c2nc(C(C)(C)C)ccc2c1 (stereo partly drawn) [Example 64, N^1-[4-(2-tert-Butyl-6-methoxy-8-quinolylamino)pentyl]-(2S)-2-aminopropanamide]
[1]; listed as 18
  Biological activity at (mg/kg/days × 4): suppressive activity at 10 mg/kg
[1]; listed as R=H, R1=H, R2=C(CH3)3, R3=S-(Ala)
  Biological activity at (mg/kg/days × 4): Suppressive at 10 mg/kg

## COc1cc(NC(C)CCCN)c2ncccc2c1 (stereo not shown) [Primaquine, N^8-(4-amino-1-methylbutyl)-6-methoxy-8-quinolinamine, reference compound]
Mastomys coucha; 15 mg/kg/day x 4 days (ip)
  (%) Methemoglobin (MetHb) Increase: 3.38%
Mastomys coucha; 15 mg/kg/day x 4 days (oral)
  (%) Methemoglobin (MetHb) Increase: 3.57%
Mastomys coucha; 50 mg/kg (single dose) (ip)
  (%) Methemoglobin (MetHb) Increase: 3.38%
Mastomys coucha; 50 mg/kg (single dose) (oral)
  (%) Methemoglobin (MetHb) Increase: 2.58%
P. falciparum; parasitized erythrocytes, 24-48 h incubation
  P. falciparum (IC50): Not active
[3]; absorbed from the gastro-intestinal tract, known property
  time to peak plasma concentration: ≤ 3 h
[3]; known property of the drug
  half-life: 4 to 6 h
[3]; known property
  apparent elimination half time: 6 h
